This is an account of results in PubChem BioAssay AID179 (DTP/NCI, 2004).

The test system of the experiment is CEM cells HIV-1 protection, formazan growth assay. The experiment can be described thus: NCI AIDS Antiviral Assay. The conditions noted are these: for IC50: measured here: growth of uninfected CEM cells. In outline: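 Human CEM cells, uninfected and HIV-1-infected, received five drug concentrations, and growth was read by soluble formazan assay. Compounds giving at least 50% protection were retested; reproducible 100% protection defined confirmed active.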

What is called EC50 is the concentration that produces a half-maximal response. By IC50 is commonly meant the point on the concentration scale where inhibition reaches its midpoint.

SMILES strings stand for the structures. The source made the active and inactive calls.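 The calls were made as follows: active = compounds giving half or more protection of infected cells from virus-caused growth loss, again on retest; inactive = the rest.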 Where a SMILES comes first, the peptide text is derived from it.

Regarding `COc1ccc(C2C(C#N)=C(S)N(C3OC(COC(C)=O)C(OC(C)=O)C(OC(C)=O)C3OC(C)=O)C(C)=C2C(C)=O)cc1` (stereo not given), the EC50 was > 200 µM and the IC50 worked out at 53.7 µM.

As to `CSc1nc2[nH]c(=O)n(OS(=O)(=O)c3ccccc3)c(=O)c2n1C`, the EC50 is > 200 µM and the IC50 amounted to 115 µM.

On to `O=P1(c2ccccc2)C(c2ccccc2)CCC1c1ccccc1` (stereo not given), for which the EC50 is > 200 µM and the IC50 came to 85.1 µM.

On to `COc1ccc(N=Nc2c(C)c(C#N)c(=S)n(C3OC(CO)C(O)C(O)C3O)c2-c2ccccc2)cc1` (stereo not given), for which the EC50 was > 200 µM and the IC50 came to 28.2 µM.

Regarding `C=CC[N+](CC)(CC)Cc1ccc(C[N+](CC)(CC)CC=C)cc1`, the EC50 is > 513 µM and the IC50 was > 513 µM.

Regarding `Cc1cc2c(cc1Cl)SC(C(=O)c1cccc([N+](=O)[O-])c1)=NS2(=O)=O`, the EC50 was 120 µM and the IC50 is > 200 µM.

`COc1ccc(C(c2ccc(C(C)C)cc(OC)c2=O)c2ccc(C(C)C)cc(OC)c2=O)cc1`: the outcome was inactive.

As to `CN/N=C(/Cc1occc(=O)c1O)C(=O)Nc1ccc(C)c(C)c1`, the EC50 is > 288 µM and the IC50 was > 288 µM.

Turning to `Nc1ncnc2snnc12`, the EC50 was > 200 µM and the IC50 is > 200 µM.

Regarding `CCOC(=O)c1ccc(N=NC2Sc3nc4ccccc4n3C2=O)cc1` (stereo not given), the outcome was inactive.

`Cc1ccc(S(=O)(=O)NNC(=O)c2cc(C(=O)NNS(=O)(=O)c3ccc(C)cc3)c(C)nc2C)cc1`: the EC50 was > 200 µM and the IC50 stood at 162 µM.

With `COC12C(COC(N)=O)C3=C(C(=O)C(C)=C(N4CCN(C)CC4)C3=O)N1CC1NC12` (stereo not given), the EC50 was > 200 µM and the IC50 turned out to be 110 µM.

In the case of `Cc1cc(NC(=O)NC/C(Cl)=C/Cl)c2ccccc2n1`, the EC50 is > 200 µM and the IC50 is 29.5 µM.

For the molecule `N#CNC1=NC(N)C(c2nc3ccccc3[nH]2)=C(CCCC(=O)Nc2cccc([N+](=O)[O-])c2)N1` (stereo not given), the EC50 was > 77.6 µM and the IC50 is > 77.6 µM.

In the case of `CSc1nncc2[nH]cnc12`, the EC50 was > 200 µM and the IC50 was > 200 µM.

For the molecule `CN(C)C(=O)Nc1cc2c3c(c1)CCCN3CCC2`, the EC50 is 81.3 µM and the IC50 was determined as 174 µM.

On to `CN(C)CCNc1cccc2oc3ccc(O)cc3c(=O)c12`, for which the EC50 is > 437 µM and the IC50 came out at 5.75 µM.

In the case of `CC(C)CCn1c(=O)c2c(=O)[nH][nH]c2c2ccccc21`, the EC50 was > 200 µM and the IC50 is > 200 µM.

`Cc1ccccc1NC(=O)CC(=O)NNC(Sc1ccccc1)c1cc(N=Nc2ccc(Br)cc2)ccc1O` (stereo not given): the EC50 is > 100 µM and the IC50 was determined as 1.23 µM.

Consider `CCOC(=O)/C=C1/C(CCCOCc2ccccc2)C2CCCC23CC2(CCN13)OCCO2` (stereo not given), for which the result was inactive.

With `Cc1c(C(=O)Nc2ccccc2)nnn1-c1ccnc2cc(C(F)(F)F)ccc12`, the EC50 was > 200 µM and the IC50 is > 200 µM.

With `c1cc(C2O[C@H]3CCCN3[C@@H]2c2ccncc2)ccn1` (stereo not given in full), the EC50 was > 933 µM and the half-maximal inhibitory concentration (IC50) was 331 µM.

For the molecule `O=C(/C=C/c1ccc(O)c(O)c1)OCCCOC(=O)/C=C/c1ccc(O)c(O)c1`, the EC50 is > 100 µM and the IC50 stood at 13.8 µM.

Turning to `CONC1CC(n2cc(C)c(=O)[nH]c2=O)OC1CO` (stereo not given), the EC50 was > 200 µM and the IC50 is > 200 µM.

On to `NC(N)=N/N=C(/CCN1CCCC1)CC(c1ccccc1)c1c(O)c2ccccc2oc1=O` (stereo not given), for which the EC50 was > 38.9 µM and the IC50 was > 38.9 µM.

With `S=CN1CCCCC1`, the EC50 is > 200 µM and the IC50 is > 200 µM.

`CC(C(O)Cc1ccccc1)N(C)N=Nc1ccc([N+](=O)[O-])cc1` (stereo not given): the EC50 is > 200 µM and the IC50 stood at 20 µM.

On to `CC(C)COC(=O)N1N=NC2C3OC(CC3=O)C21` (stereo not given), for which the EC50 is > 977 µM and the IC50 is > 977 µM.

Regarding `C/C(=N\OC(=O)Nc1ccccc1)c1ccccc1`, the EC50 was > 200 µM and the IC50 was determined as 132 µM.

For `O=C(Nc1ccc([N+](=O)[O-])cn1)Nc1cc([N+](=O)[O-])ccc1F`, the EC50 was > 200 µM and the IC50 was found to be 17.4 µM.

Turning to `CC/C(=C(\C#N)c1ccc(F)cc1)c1ccc(OCCN(CC)CC)cc1`, the EC50 is > 200 µM and the IC50 was 2.51 µM.

With `C=C1CC(Cn2cc(C)c(=O)[nH]c2=O)(c2ccc(Cl)cc2)OC1=O` (stereo not given), the EC50 was > 20 µM and the IC50 amounted to 0.617 µM.

For `CSc1s[s+]c(SC)c1[O-]`, the result was inactive.

Regarding `Cn1c(=O)c2ccccc2[n+]2c(-c3cccc([N+](=O)[O-])c3)csc12`, the EC50 was > 200 µM and the IC50 is 148 µM.

Turning to `O=[N+]([O-])c1ccc(Sc2ccc([N+](=O)[O-])cc2)cc1`, the result was inactive.

Take `OC1CCN2Cc3ccccc3N=C12` (stereo not given): the EC50 was > 200 µM and the IC50 was > 200 µM.

Regarding `O=C1CC(C(O)(C(F)(F)F)C(F)(F)Cl)CCC1C(O)(C(F)(F)F)C(F)(F)Cl` (stereo not given), the outcome was inactive.

On to `O=C1C(N=Nc2ccc(Cl)cc2)Sc2nc3ccccc3n21` (stereo not given), for which the outcome was inactive.

For `c1ccc2nc(NCCSSCCNc3cnc4ccccc4n3)cnc2c1`, the EC50 was > 200 µM and the IC50 turned out to be 24.5 µM.

For `CCCC[P+](c1ccccc1)(c1ccccc1)c1ccccc1`, the EC50 was > 200 µM and the IC50 came out at 2.57 µM.

On to `CCn1c(SCc2nnc(Nc3ccccc3)s2)nc2ccccc2c1=O`, for which the EC50 is > 200 µM and the IC50 is 69.2 µM.

With `COc1ccc(CNc2nc3ccc(C(F)(F)F)cc3nc2-c2ccccc2)cc1OC`, the EC50 is > 12 µM and the IC50 was > 12 µM.

Turning to `Cc1cccc2c1C/C(=C\c1cccc(C)c1C(=O)O)C2=O`, the outcome was inactive.

With `Cc1cc2n(n1)C(C)(C)C(=O)Nc1ccc(Cl)cc1-2`, the EC50 was > 49 µM and the IC50 was 33.9 µM.

Consider `COc1cc(Cl)c2c3c(c(C(C)=O)oc13)CCC2`, for which the result was inactive.

Turning to `CCOC(=O)Cc1cc(=O)n(C)c2ccccc12`, the EC50 was > 200 µM and the IC50 was > 200 µM.

Take `O=C(Nc1nc(=S)[nH][nH]1)C(=O)C(C(=O)c1ccc2ccccc2c1)C1OC(=O)c2ccccc21` (stereo not given): the EC50 was > 55 µM and the IC50 came to 25.7 µM.

As to `COc1cc2c3c(cccc3c1)C(=O)N(CCN(C)C)C2=O`, the EC50 was > 200 µM and the IC50 is 1.26 µM.

Turning to `C[C@]12CCC[C@H](O)[C@H]1C[C@H](CO)CC2`, the outcome was inactive.

`Nc1ncnc2c1ncn2C1CCC(=O)C1` (stereo not given): the EC50 is > 1150 µM and the IC50 turned out to be 174 µM.

Regarding `C/C(=N\O)[C@H]1CC[C@H]2[C@@H]3CC[C@@H]4C/C(=N/O)CC[C@]4(C)[C@H]3[C@@](C)(O)C[C@]12C`, the EC50 is > 200 µM and the IC50 was 26.9 µM.

`CC1CCCC2=C1C(=O)N(CSCN1C(=O)C3=C(C1=O)C(C)CCC3)C2=O` (stereo not given): the EC50 is > 200 µM and the IC50 was determined as 141 µM.

Turning to `COc1ccc2c(c1)C(O)(C(F)(F)F)c1cc(C(=O)C(F)(F)F)c3ccccc3c1N2` (stereo not given), the EC50 is > 6.17 µM and the IC50 was > 6.17 µM.

On to `COC1CC(n2cnc3c(N)ncnc32)OC1CO` (stereo not given), for which the EC50 was > 200 µM and the IC50 was > 200 µM.

With `COC12C(COC(N)=O)C3=C(C(=O)C(C)=C(N)C3=O)N1CC1C2N1C` (stereo not given), the EC50 is > 724 µM and the IC50 was found to be 0.417 µM.

`NC1=NS(=O)(=O)Nc2nc(-c3ccc(Cl)cc3)c(-c3ccc(Cl)cc3)nc21`: the EC50 was > 61.7 µM and the IC50 is > 61.7 µM.

`C=C(CBr)CCCOCc1ccccc1`: the EC50 was > 200 µM and the concentration for half-maximal inhibition (IC50) was 105 µM.

As to `CCC1C(c2cc(OC)c(OC)c(OC)c2)c2cc3c(cc2OC1N1CCCC1)OCO3` (stereo not given), the EC50 was > 200 µM and the IC50 was 1.12 µM.

`CCOC(=O)c1nnsc1NC(=O)NCCCCCCn1c(=O)n(CCCCCCNC(=O)Nc2snnc2C(=O)OCC)c(=O)n(CCCCCCNC(=O)Nc2snnc2C(=O)OCC)c1=O`: the EC50 was > 200 µM and the IC50 was > 200 µM.

For `COc1cc2c3cc1Oc1c(OC)c(OC)cc4c1[C@H](Cc1cc5c(c(c1)Oc1ccc(cc1)CC3N(C)CC2)OCO5)N(C)CC4` (stereo not given in full), the result was inactive.

As for `CCOC(=O)C(=CN1CC(=O)NC1=S)C(=O)OCC`, the EC50 is > 200 µM and the IC50 was > 200 µM.

In the case of `CCOC(=O)NC(Nc1ncccn1)(C(=O)OCC)C(F)(F)F` (stereo not given), the EC50 was > 200 µM and the IC50 was > 200 µM.

For `[Zn+2].c1ccc(-c2c3nc(c(-c4ccccc4)c4[n-]c(c(-c5ccccc5)c5nc(c(-c6ccccc6)c6[n-]c2c2ccccc62)-c2ccccc2-5)c2ccccc42)-c2ccccc2-3)cc1`, the EC50 is > 50.1 µM and the IC50 is > 50.1 µM.

For `CN1C(=O)/C(=N\n2c(-c3ccccc3)nc3ccccc3c2=O)c2cc(Br)ccc21`, the EC50 was > 200 µM and the IC50 was > 200 µM.

Turning to `COC(=O)C(Cc1ccccc1)NC(=O)C(CCC(=O)OCc1ccccc1)NC(=O)OC(C)(C)C` (stereo not given), the EC50 was > 200 µM and the IC50 stood at 28.8 µM.

Regarding `CC(C)CC(NC(=O)C(Cc1cnc[nH]1)NC(=O)C(CC(N)=O)NC(=O)C(NC(=O)C(CO)NC(=O)C(Cc1ccc(O)cc1)NC(=O)C(CO)NC(=O)C(C)NC(=O)C(CCCCN)NC(=O)C(N)CC(=O)O)C(C)O)C(=O)O` (stereo not given) (H-DKASYSTNHL-OH; configuration not given here), the EC50 was > 55 µM and the IC50 is > 55 µM.

Take `CCN(CC)C(=O)c1c(Cl)cc(N(CC)CC)oc1=O`: the EC50 is > 832 µM and the IC50 was > 832 µM.

As for `CC1(C)COC2C(N(Cc3ccccc3)Cc3ccccc3)C(=O)N21` (stereo not given), the outcome was inactive.

For `Nn1c(=O)n2n(c1=O)C1CCC2C1`, the EC50 is > 200 µM and the IC50 was > 200 µM.

With `CC1c2c(cc(=O)n(C)c2O)C(=O)N1C` (stereo not given), the EC50 is 288 µM and the IC50 came to 457 µM.

In the case of `NNc1nc2ccccc2c(=O)n1NC(=O)C(=O)Nc1cccc(C(F)(F)F)c1`, the EC50 was > 324 µM and the IC50 was > 324 µM.
